Experimental data as given in article PMC7377239, “Cardiovascular Effects of Polychlorinated Biphenyls and Their Major Metabolites” (Environmental Health Perspectives, 2020).
Read-outs that look alike come from different tables or passages of the source.

How the values were obtained:
[1] = test system: HUVECs; experiment: High-content imaging cytotoxicity in HUVECs, 24 h; type: cell-based, human; details: Homo sapiens, HUVEC, 24 h, HUVEC, 24 hr
Method in brief: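 Confluent HUVEC monolayers, passages 1–5, received test chemicals for 24 h. Cytotoxicity was scored from triple-stain high-content images, with PODs defined by a one-SD deviation from 0.5% DMSO vehicle controls.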

[2] = test system: iCell cardiomyocytes (human iPSC-derived cardiomyocytes); experiment: High-content imaging of cytotoxicity and mitochondrial integrity in iPSC-CMs; type: cell-based; details: Homo sapiens, Cardiomyocyte, cardiomyocytes (cm)
Method in brief: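 This assay measured cytotoxicity and mitochondrial integrity in iPSC cardiomyocytes held in 40μL maintenance medium. After compound exposure, a 2× staining solution with Hoechst 33342 (4μg/mL) and MitoTracker™ Orange (0.4μM) was applied for 15 min at 37°C. Cells were washed, fixed with 3.7% formaldehyde, imaged on DAPI and Cy3 channels, and scored in MetaXpress®.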

Clc1ccc(Cl)c(-c2c(Cl)ccc(Cl)c2Cl)c1 [PCB 95, 2,2′,3,5′,6-pentachlorobiphenyl]
minimal effective concentration ([1]; cyto, read-out: POD huvec.cyto.24hr): 0.01 µM
minimal effective concentration ([1]; mito, read-out: POD huvec.mito.24hr): 0.022 µM
minimal effective concentration ([1]; mitoint, read-out: POD huvec.mitoint.24hr): 7.41 µM
minimal effective concentration ([1]; nma, read-out: POD huvec.nma.24hr): 1.93 µM
minimal effective concentration ([1]; tc, read-out: POD huvec.tc.24hr): 0.01 µM
minimal effective concentration ([2]; 1.5 h, cam, 90 min, read-out: POD cm.cam.90min): 36.6 µM
minimal effective concentration ([2]; 1.5 h, mii, 90 min, read-out: POD cm.mii.90min): 100 µM
minimal effective concentration ([2]; 1.5 h, mito, 90 min, read-out: POD cm.mito.90min): 39.6 µM
minimal effective concentration ([2]; 1.5 h, tc, 90 min, read-out: POD cm.tc.90min): 38.7 µM
minimal effective concentration ([2]; 24 h, cam, 24 hrs, read-out: POD cm.cam.24hrs): 8.98 µM
minimal effective concentration ([2]; 24 h, mii, 24 hrs, read-out: POD cm.mii.24hrs): 22.2 µM
minimal effective concentration ([2]; 24 h, mito, 24 hrs, read-out: POD cm.mito.24hrs): 8.96 µM
minimal effective concentration ([2]; 24 h, tc, 24 hrs, read-out: POD cm.tc.24hrs): 8.75 µM
